Laboratory results published in patent US20040101578A1, “Compositon containg ginkgo biloba that inhibit angiogenesis and matrix metalloprotinase” (priority 2003, published 2004).

Tested on: human umbilical vein endothelial cells (HUVEC)
Experiment: Tube formation of HUVEC grown with Matrigel
Type: cell-based
Conditions: for Area of the tube: 50 μM compound in DMSO, DMSO control 88; for Area of the tube %: DMSO control = 100; for inhibition at 50 µM: Homo sapiens, HUVEC, read-out: percent inhibition of the tube formation
Description: In order to do the tube formation assay, blood vessel endothelial cells, that Is, human umbilical vein endothellal cells (HUVECs), were isolated. HUVECs were isolated from freshly obtained cords after cesarean section, and they were grown and identified by immunocytochemial staining with anti-Factor Vil antibody. HUVECs grown with Matrigel (BD Bioscience, Bedford, Mass., USA), were treated with 0.4 μg/μl of the above Ginkgo biloba leaf extract (Hwa II Pharmaceutical Co., LTD, Korea) of the EXAMPLE 1, and further incubated at 37° C. for […]. As a control, the procedure was repeated without Ginkgo biloba leaf extract.
The area of the tube was determined by the image analysis program Image-Pro Plus (Media Cybernetics, USA), and as summarized in Table I, tube formation after treatment of Ginkgo biloba leaf extract was inhibited by about 60% as compared with the untreated control.
Representative compounds from Ginkgo biloba, quercetin (Sigma Cat No. Q0125) and kaempferol (Indofine Chemical Cat No. K-102) as flavonoids, amentoflavon (Indofine Chemical Cat No. 021101S) as a biflavonoid and ginkolide A (Sigma Cat No. G4028) as a terpene-lactone, were subjected to the tube formation assay as described in EXAMPLE 1.
Since the above chemicals are not soluble in water, they were dissolved on dimethyl sulfoxide (DMSO), and in order to exclude the effect of solvent for these compounds, HUVECs treated with the same amount of DMSO were used as a control. FIG. 6 is a picture of the 1% DMSO-treated HUVEC control, and FIGS. 7-10 are pictures showing the effect on tube formation of individual compounds (quercetin, kaempferol, amentoflavon, and ginlkolide A, respectively). At 50 μM concentration, the order of inhibitory effect on HUVEC tube formation was quercetin>kaempferol>amentoflavon>ginkgolide A. Ginkgolide A was not effective even at 1 mM concentration.
Therefore, not biflavonoids but flavonoids such as quercetin and kaempferol, are the major component for angiogenesis inhibition in Ginkgo biloba leaf extract.

[1] = 50 μM compound, versus DMSO control

| SMILES | Area of the tube | Area of the tube % (50 μM compound) | inhibition at 50 µM [1] | percent inhibition of the tube formation [1] | effect on HUVEC tube formation (1 mM concentration) |
| --- | --- | --- | --- | --- | --- |
| O=c1c(O)c(-c2ccc(O)c(O)c2)oc2cc(O)cc(O)c12 [Quercetin, quercetin] | 6.6 | 7.5% | 93% | – | – |
| O=c1cc(-c2ccc(O)c(-c3c(O)cc(O)c4c(=O)cc(-c5ccc(O)cc5)oc34)c2)oc2cc(O)cc(O)c12 [Amentoflavon, amentoflavon] | 48 | 55% | – | 45 | – |
| O=c1c(O)c(-c2ccc(O)cc2)oc2cc(O)cc(O)c12 [Kaempferol, kaempferol] | 24 | 27% | 73% | – | – |
| C[C@@H]1C(=O)O[C@H]2C[C@@]34[C@H]5C[C@@H](C(C)(C)C)[C@]36[C@@H](OC(=O)[C@@H]6O)O[C@@]4(C(=O)O5)[C@]21O [Ginkgolide A, ginkolide A] | – | – | – | – | not effective |
